The values that follow are results of earlier work, collected in patent US11213608B2, “Compositions including gelatin nanoparticles and methods of use thereof” (Wake Forest University Health Sciences, priority 2018, dated 2022).

Each structure is given as a SMILES string.

The series relates to HepG2 cells.

Consider `Cc1c(C)c2c(c(C)c1O)CCC(C)(COc1ccc(CC3SC(=O)NC3=O)cc1)O2` (stereo not shown) [TRO, troglitazone], for which the “concentration above which toxic effects are commonly reported” value is on record as “above 100 μM”.
